In assay [1] the target is recombinant human baculovirus-expressed AXL (Homo sapiens (Human), UniProt P30530). The assay can be described thus: AXL kinase assay (HTRF KinEASE). The format is biochemical. Conditions: average of two or more determinations. A general note: TR-FRET usually uses a lanthanide donor and a delayed reading to cut background.
Assay [2] deals with recombinant human baculovirus-expressed cMET (Homo sapiens (Human), UniProt P08581). The assay can be described thus: c-MET kinase assay (HTRF KinEASE). It is filed as biochemical. Conditions: average of two or more determinations; read-out: c-MET IC50.

As usually defined, the IC50 is the concentration needed to halve the response being measured.

With `CC(C)n1nc(C(=O)Nc2ccc(Oc3cc(-c4cn(C)cn4)cn4nccc34)c(F)c2)c(=O)n(-c2ccc(F)cc2)c1=O` [Example 129, 4-(4-Fluoro-phenyl)-2-isopropyl-3,5-dioxo-2,3,4,5-tetrahydro-1,2,4-triazine-6-carboxylic acid{3-fluoro-4-[6-(1-methyl-1H-imidazol-4-yl)-pyrazolo[1,5-a]pyridin-4-yloxy]-phenyl}-amide], the IC50 in assay [1] and in assay [2] was less than 0.01 µM in each case.
Consider `Cc1cc(NC(=O)c2cn(C(C)C)c(=O)n(-c3ccc(F)cc3)c2=O)ccc1Oc1cc(-c2cn(C)cn2)cn2nccc12` [Example 110, 3-(4-Fluoro-phenyl)-1-isopropyl-2,4-dioxo-1,2,3,4-tetrahydro-pyrimidine-5-carboxylic acid{3-methyl-4-[6-(1-methyl-1H-imidazol-4-yl)-pyrazolo[1,5-a]pyridin-4-yloxy]-phenyl}-amide], for which the IC50 in assay [1] was less than 0.01 µM; in assay [2] it was 0.01 to 0.1 µM.
Taken in the same sequence, the figures for `CC(C)n1cc(C(=O)Nc2ccc(Oc3cc(-c4cncs4)cn4nccc34)c(F)c2)c(=O)n(-c2ccc(F)cc2)c1=O` [Example 103, 3-(4-Fluoro-phenyl)-1-isopropyl-2,4-dioxo-1,2,3,4-tetrahydro-pyrimidine-5-carboxylic acid[3-fluoro-4-(6-thiazol-5-yl-pyrazolo[1,5-a]pyridin-4-yloxy)-phenyl]-amide] were less than 0.01 µM and less than 0.01 µM.
Taken in the same sequence, the figures for `CCn1cc(C(=O)Nc2ccc(Oc3cc(NC(=O)OC)cn4nccc34)c(F)c2)c(=O)n(-c2ccc(F)cc2)c1=O` [Example 148, [4-(4-{[1-Ethyl-3-(4-fluoro-phenyl)-2,4-dioxo-1,2,3,4-tetrahydro-pyrimidine-5-carbonyl]-amino}-2-fluoro-phenoxy)-pyrazolo[1,5-a]pyridin-6-yl]-carbamic acid methyl ester] were less than 0.01 µM and 0.01 to 0.1 µM.
In the case of `Cn1cc(-c2cc(Oc3ccc(NC(=O)c4c[nH]c(=O)n(-c5ccc(F)cc5)c4=O)cc3F)c3ccnn3c2)cn1` [Example 30, 3-(4-Fluoro-phenyl)-2,4-dioxo-1,2,3,4-tetrahydro-pyrimidine-5-carboxylic acid {3-fluoro-4-[6-(1-methyl-1H-pyrazol-4-yl)-pyrazolo[1,5-a]pyridin-4-yloxy]-phenyl}-amide], the IC50 in assay [1] and in assay [2] was less than 0.01 µM throughout.
Take `CC(C)n1cc(C(=O)Nc2ccc(Oc3cc(NC(=O)N(C)C)cn4nccc34)c(F)c2)c(=O)n(-c2ccc(F)cc2)c1=O` [Example 147, 3-(4-Fluoro-phenyl)-1-isopropyl-2,4-dioxo-1,2,3,4-tetrahydro-pyrimidine-5-carboxylic acid{4-[6-(3,3-dimethyl-ureido)-pyrazolo[1,5-a]pyridin-4-yloxy]-3-fluoro-phenyl}-amide]: the IC50 in assay [1] and in assay [2] was less than 0.01 µM each time.
Consider `CCn1cc(C(=O)Nc2ccc(Oc3cc(-c4cn(C)cn4)cn4nccc34)cc2)c(=O)n(-c2ccc(F)cc2)c1=O` [Example 113, 1-Ethyl-3-(4-fluoro-phenyl)-2,4-dioxo-1,2,3,4-tetrahydro-pyrimidine-5-carboxylic acid {4-[6-(1-methyl-1H-imidazol-4-yl)-pyrazolo[1,5-a]pyridin-4-yloxy]-phenyl}-amide], for which the IC50 in assay [1] and in assay [2] was less than 0.01 µM throughout.
With `CCn1cc(C(=O)Nc2ccc(Oc3cc(-c4cncs4)cn4nccc34)c(F)c2)c(=O)n(-c2ccc(F)cc2)c1=O` [Example 104, 1-Ethyl-3-(4-fluoro-phenyl)-2,4-dioxo-1,2,3,4-tetrahydro-pyrimidine-5-carboxylic acid[3-fluoro-4-(6-thiazol-5-yl-pyrazolo[1,5-a]pyridin-4-yloxy)-phenyl]-amide], the IC50 in assay [1] and in assay [2] was less than 0.01 µM throughout.
Turning to `Cn1cnc(-c2cc(Oc3ccc(NC(=O)c4cccn(-c5ccc(F)cc5)c4=O)cc3F)c3ccnn3c2)c1` [Example 88, 1-(4-Fluoro-phenyl)-2-oxo-1,2-dihydro-pyridine-3-carboxylic acid {3-fluoro-4-[6-(1-methyl-1H-imidazol-4-yl)-pyrazolo[1,5-a]pyridin-4-yloxy]-phenyl}-amide], the half-inhibitory concentration (IC50) in assay [1] and in assay [2] was less than 0.01 µM in each case.
As for `CC(C)n1cc(C(=O)Nc2ccc(Oc3cc(N4CCOCC4)cn4nccc34)c(F)c2)c(=O)n(-c2ccc(F)cc2)c1=O` [Example 62, 3-(4-Fluoro-phenyl)-1-isopropyl-2,4-dioxo-1,2,3,4-tetrahydro-pyrimidine-5-carboxylic acid[3-fluoro-4-(6-morpholin-4-yl-pyrazolo[1,5-a]pyridin-4-yloxy)-phenyl]-amide], the IC50 in assay [1] and in assay [2] was less than 0.01 µM in each case.
In the case of `Cn1cnc(-c2cc(Oc3ccc(NC(=O)c4cn(C)c(=O)n(-c5ccc(F)cc5)c4=O)cc3F)c3ccnn3c2)c1` [Example 95, 3-(4-Fluoro-phenyl)-1-methyl-2,4-dioxo-1,2,3,4-tetrahydro-pyrimidine-5-carboxylic acid{3-fluoro-4-[6-(1-methyl-1H-imidazol-4-yl)-pyrazolo[1,5-a]pyridin-4-yloxy]-phenyl}-amide], the IC50 in assay [1] and in assay [2] was less than 0.01 µM in each case.
For `CCOCCn1cc(C(=O)Nc2ccc(Oc3cc(-c4cnn(C)c4)cn4nccc34)c(F)c2)c(=O)n(-c2ccc(F)cc2)c1=O` [Example 31, 1-(2-Ethoxy-ethyl)-3-(4-fluoro-phenyl)-2,4-dioxo-1,2,3,4-tetrahydro-pyrimidine-5-carboxylic acid {3-fluoro-4-[6-(1-methyl-1H-pyrazol-4-yl)-pyrazolo[1,5-a]pyridin-4-yloxy]-phenyl}-amide], the IC50 in assay [1] and in assay [2] was less than 0.01 µM in each case.
For the compound `CC(C)n1cc(C(=O)Nc2ccc(Oc3cc(-c4cn(C)cn4)cn4nccc34)cc2)c(=O)n(-c2ccc(F)cc2)c1=O` [Example 114, 3-(4-Fluoro-phenyl)-1-isopropyl-2,4-dioxo-1,2,3,4-tetrahydro-pyrimidine-5-carboxylic acid{4-[6-(1-methyl-1H-imidazol-4-yl)-pyrazolo[1,5-a]pyridin-4-yloxy]-phenyl}-amide], the IC50 in assay [1] and in assay [2] was less than 0.01 µM throughout.
Turning to `CCn1cc(C(=O)Nc2ccc(Oc3cc(-c4cnn(C)c4)cn4nccc34)c(F)c2)c(=O)n(-c2ccc(F)cc2)c1=O` [Example 33, 1-Ethyl-3-(4-fluoro-phenyl)-2,4-dioxo-1,2,3,4-tetrahydro-pyrimidine-5-carboxylic acid {3-fluoro-4-[6-(1-methyl-1H-pyrazol-4-yl)-pyrazolo[1,5-a]pyridin-4-yloxy]-phenyl}-amide], the IC50 in assay [1] and in assay [2] was less than 0.01 µM in each case.

For the origin of these results see patent publication US9914731B2, “Pyrazolo[1,5-a]pyridine derivatives and methods of their use” (Ignyta, Inc., priority 2013, dated 2018).
